Reference: US20250177429A1, “ORALLY ACTIVE PRODRUG OF GEMCITABINE” (Laevoroc Chemotherapy AG, priority 2022, published 2025)
Read-outs that look alike come from different tables or passages of the source. Values belong to the compound of their own block, whether it stands above or below them.

Experiments:
[1] = Stability in aqueous media at RT; format: physicochemical
Source text: Regarding to the MS profile, most of the observed impurities concern a valproic moiety cleavage and/or valine moiety migration/cleavage. […] In agreement with earlier observation, a lower acidity medium will likely result in a higher ratio of valine hydrolysis.

[2] = Solubility of the mono-hydrochloride salt in water and buffer solutions; format: physicochemical; conditions: thermodynamic from solid; for solubility at 15 min: solid added until saturation
Protocol: In each case, a first estimation was performed by adding small amounts of solvents until dissolution of the solid (50 mg), followed by a second estimation performed through the addition of small amounts of solid to a determined quantity of solvent until saturation was reached (suspension observed after 15 min). This second estimation was undertaken twice for each solution.

[3] = Powder stability of the API on storage; format: physicochemical; conditions: powder form of the API, FIG. 3
CDA = CDA (Homo sapiens, UniProt P32320); conditions: Bender et al. 2009; cited from earlier work
Chain of CDA (P32320 whole entry, species assumed): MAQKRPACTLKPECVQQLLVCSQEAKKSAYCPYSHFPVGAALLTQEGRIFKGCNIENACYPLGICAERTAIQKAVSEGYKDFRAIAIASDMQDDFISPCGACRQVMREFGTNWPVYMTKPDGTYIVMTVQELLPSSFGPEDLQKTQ

Japanese patients = conditions: phase I, 2013; cited from earlier work
[4] = result of first pass metabolism; Shipley et al. 1992; cited from earlier work
mice = conditions: cited from earlier work

- Stability in aqueous media at RT ([1]; Water, 30 Min): 97.06%
- Stability in aqueous media at RT ([1]; Water, 1 hour): 96.98%
- Stability in aqueous media at RT ([1]; Water, 2 hours): 96.89%
- Stability in aqueous media at RT ([1]; Water, 4 hours): 96.62%
- Stability in aqueous media at RT ([1]; Water, 6 hours): 96.42%
- Stability in aqueous media at RT ([1]; Water, 1 day): 94.45%
- Stability in aqueous media at RT ([1]; Water, 2 days): 91.07%
- Stability in aqueous media at RT ([1]; Water, 7 days): 77.12%
- Stability in aqueous media at RT ([1]; Water, time 0 (API Powder)): 97.21%
- Degradation of the API in aqueous media ([1]; aqueous media, RT, FIG. 4): significant short-term degradation
- Stability in aqueous media at RT ([1]; pH 1.2, 30 Min): 97.03%
- Stability in aqueous media at RT ([1]; pH 1.2, 1 hour): 96.83%
- Stability in aqueous media at RT ([1]; pH 1.2, 2 hours): 96.42%
- Stability in aqueous media at RT ([1]; pH 1.2, 4 hours): 95.71%
- Stability in aqueous media at RT ([1]; pH 1.2, 6 hours): 95.14%
- Stability in aqueous media at RT ([1]; pH 1.2, 1 day): 88.40%
- Stability in aqueous media at RT ([1]; pH 1.2, 2 days): 80.05%
- Stability in aqueous media at RT ([1]; pH 1.2, 7 days): 30.60%
- Stability in aqueous media at RT ([1]; pH 1.2, time 0 (API Powder)): 97.21%
- Stability in aqueous media at RT ([1]; pH 4.5, 30 Min): 96.45%
- Stability in aqueous media at RT ([1]; pH 4.5, 1 hour): 96.35%
- Stability in aqueous media at RT ([1]; pH 4.5, 2 hours): 96.24%
- Stability in aqueous media at RT ([1]; pH 4.5, 4 hours): 95.46%
- Stability in aqueous media at RT ([1]; pH 4.5, 6 hours): 94.87%
- Stability in aqueous media at RT ([1]; pH 4.5, 1 day): 90.73%
- Stability in aqueous media at RT ([1]; pH 4.5, 2 days): 84.24%
- Stability in aqueous media at RT ([1]; pH 4.5, 7 days): 57.17%
- Stability in aqueous media at RT ([1]; pH 4.5, time 0 (API Powder)): 97.21%
- Stability in aqueous media at RT ([1]; pH 6.8, 30 Min): 91.08%
- Stability in aqueous media at RT ([1]; pH 6.8, 1 hour): 87.32%
- Stability in aqueous media at RT ([1]; pH 6.8, 2 hours): 80.70%
- Stability in aqueous media at RT ([1]; pH 6.8, 4 hours): 65.65%
- Stability in aqueous media at RT ([1]; pH 6.8, 6 hours): 57.40%
- Stability in aqueous media at RT ([1]; pH 6.8, 1 day): 9.48%
- Stability in aqueous media at RT ([1]; pH 6.8, 2 days): 7.48%
- Stability in aqueous media at RT ([1]; pH 6.8, 7 days): 1.77%
- Stability in aqueous media at RT ([1]; pH 6.8, time 0 (API Powder)): 97.21%
- solubility ([2]; buffer solution pH 1.2, pH 1.2, simulated gastric fluid, Buffer pH 1.2, read-out: Mean solubility): 211 mg/mL
- solubility at 15 min ([2]; buffer solution pH 1.2, pH 1.2, simulated gastric fluid, Buffer pH 1.2, read-out: Solubility, Estimation 2a): 217 mg/mL
- solubility at 15 min ([2]; buffer solution pH 1.2, pH 1.2, simulated gastric fluid, Buffer pH 1.2, read-out: Solubility, Estimation 2b): 208 mg/mL
- solubility ([2]; buffer solution pH 1.2, pH 1.2, simulated gastric fluid, Buffer pH 1.2, solvent added until dissolution of 50 mg solid, read-out: Solubility, Estimation 1): 207 mg/mL
- solubility ([2]; buffer solution pH 4.5, pH 4.5, aqueous buffer, Buffer pH 4.5, read-out: Mean solubility): 227 mg/mL
- solubility at 15 min ([2]; buffer solution pH 4.5, pH 4.5, aqueous buffer, Buffer pH 4.5, read-out: Solubility, Estimation 2a): 236 mg/mL
- solubility at 15 min ([2]; buffer solution pH 4.5, pH 4.5, aqueous buffer, Buffer pH 4.5, read-out: Solubility, Estimation 2b): 233 mg/mL
- solubility ([2]; buffer solution pH 4.5, pH 4.5, aqueous buffer, Buffer pH 4.5, solvent added until dissolution of 50 mg solid, read-out: Solubility, Estimation 1): 213 mg/mL
- solubility ([2]; buffer solution pH 6.8, pH 6.8, aqueous buffer, Buffer pH 6.8, read-out: Mean solubility): 275 mg/mL
- solubility at 15 min ([2]; buffer solution pH 6.8, pH 6.8, aqueous buffer, Buffer pH 6.8, read-out: Solubility, Estimation 2a): 302 mg/mL
- solubility at 15 min ([2]; buffer solution pH 6.8, pH 6.8, aqueous buffer, Buffer pH 6.8, read-out: Solubility, Estimation 2b): 280 mg/mL
- solubility ([2]; buffer solution pH 6.8, pH 6.8, aqueous buffer, Buffer pH 6.8, solvent added until dissolution of 50 mg solid, read-out: Solubility, Estimation 1): 241 mg/mL
- solubility ([2]; water, Water, read-out: Mean solubility): 394 mg/mL
- solubility at 15 min ([2]; water, Water, read-out: Solubility, Estimation 2a): 463 mg/mL
- solubility at 15 min ([2]; water, Water, read-out: Solubility, Estimation 2b): 462 mg/mL
- solubility ([2]; water, Water, solvent added until dissolution of 50 mg solid, read-out: Solubility, Estimation 1): 257 mg/mL
- Powder stability, change on storage ([3]; 3 months' storage at 2-4° C.): no significant change
- Powder stability, change on storage ([3]; 3 months' storage at RT): no significant change
SMILES: CCCC(CCC)C(=O)Nc1ccn([C@@H]2O[C@H](CO)[C@@H](OC(=O)[C@@H](N)C(C)C)C2(F)F)c(=O)n1.Cl [LR-06-B.HCl, (2R,3R,5R)-4,4-difluoro-2-(hydroxymethyl)-5-(2-oxo-4-(2-propylpentanamido)-1,2-dihydropyrimidin-1-yl)oxolan-3-yl (2S)-2-amino-3-methylbutanoate hydrochloride]

SMILES: CCCC(CCC)C(=O)Nc1ccn([C@@H]2O[C@H](CO)[C@@H](O)C2(F)F)c(=O)n1 [LY2334737]
- Degradation by CDA (CDA): significantly less prone to degradation by CDA
- Hepatic toxicity (Japanese patients): unexpected hepatic toxicities

SMILES: Nc1ccn([C@@H]2O[C@H](CO)[C@@H](O)C2(F)F)c(=O)n1 [gemcitabine, Gemcitabine]
- Oral bioavailability [4]: poor
- Death or gastrointestinal toxicity after intravenous dosing (mice; comparable exposures via intravenous dosing): did not result in death or gastrointestinal toxicity
- Intestinal lesions after single oral dose (mice; single oral (gavage) dose of 167, 333, or 500 mg/kg, Horton et al. 2004): moderate-to-marked loss of mucosal epithelium (atrophic enteropathy)
